# According to PubChem BioAssay AID2060912 (Molecular Pharmacology Branch, DTP, NCI, 2025):
# pIC50: −log10 of the molar value.
# System: HUVEC/MSC spheroids viability
# Test: Human HUVEC/MSC cell line growth inhibition [KRAS2];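 for viability, T/C: percent of DMSO vehicle control luminescence so 100% = untreated viability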
# Conditions: for pIC50: curve of first compound; for viability, T/C: stronger effect = lower value
# Outline: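 The concentration series started at or near clinical Cmax (10 microM if not known) and fell in half-log increments, alone or in combination. Cells were stromal-only spheroids of pooled-donor HUVEC and hMSC (passage </=5), with different drug plates and layout from the tumor spheroid screens.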
# [1] = second compound 0.0316 µM, first compound 0.0316 µM
# [2] = second compound 0.0316 µM, first compound 0.1 µM
# [3] = second compound 0.0316 µM, first compound 0.316 µM
# [4] = second compound 0.0316 µM, first compound 1 µM
# [5] = second compound 0.1 µM, first compound 0.0316 µM
# [6] = second compound 0.1 µM, first compound 0.1 µM
# [7] = second compound 0.1 µM, first compound 0.316 µM
# [8] = second compound 0.1 µM, first compound 1 µM
# [9] = second compound 0.316 µM, first compound 0.0316 µM
# [10] = second compound 0.316 µM, first compound 0.1 µM
# [11] = second compound 0.316 µM, first compound 0.316 µM
# [12] = second compound 0.316 µM, first compound 1 µM
# [13] = second compound 1 µM, first compound 0.0316 µM
# [14] = second compound 1 µM, first compound 0.1 µM
# [15] = second compound 1 µM, first compound 0.316 µM
# [16] = second compound 1 µM, first compound 1 µM
# [17] = second compound 3.16 µM, first compound 0.0316 µM
# [18] = second compound 3.16 µM, first compound 0.1 µM
# [19] = second compound 3.16 µM, first compound 0.316 µM
# [20] = second compound 3.16 µM, first compound 1 µM
# [21] = second compound 10 µM, first compound 0.0316 µM
# [22] = second compound 10 µM, first compound 0.1 µM
# [23] = second compound 10 µM, first compound 0.316 µM
# [24] = second compound 10 µM, first compound 1 µM
# [25] = second compound 0.0316 µM, first compound 0.00316 µM
# [26] = second compound 0.0316 µM, first compound 0.01 µM
# [27] = second compound 0.1 µM, first compound 0.00316 µM
# [28] = second compound 0.1 µM, first compound 0.01 µM
# [29] = second compound 0.316 µM, first compound 0.00316 µM
# [30] = second compound 0.316 µM, first compound 0.01 µM
# [31] = second compound 1 µM, first compound 0.00316 µM
# [32] = second compound 1 µM, first compound 0.01 µM
# [33] = second compound 3.16 µM, first compound 0.00316 µM
# [34] = second compound 3.16 µM, first compound 0.01 µM
# [35] = second compound 10 µM, first compound 0.00316 µM
# [36] = second compound 10 µM, first compound 0.01 µM
structure (smiles),measurement,setting,value
CC1(C)CCC(CN2CCN(c3ccc(C(=O)NS(=O)(=O)c4ccc(NCC5CCOCC5)c([N+](=O)[O-])c4)c(Oc4cnc5[nH]ccc5c4)c3)CC2)=C(c2ccc(Cl)cc2)C1 + CNCc1ccccc1-c1csc(C(C)Nc2nc(C)nc3cc(OC)c(OC)cc23)c1,pIC50,second compound 0.0316 µM,5.37
same,pIC50,second compound 0.1 µM,5.39
same,pIC50,second compound 0.316 µM,5.39
same,pIC50,second compound 1 µM,5.31
same,pIC50,second compound 3.16 µM,5.28
same,pIC50,second compound 10 µM,> 7.50
same,"viability, T/C",[1],101%
same,"viability, T/C",[2],111%
same,"viability, T/C",[3],101%
same,"viability, T/C",[4],94.2%
same,"viability, T/C","second compound 0.0316 µM, first compound 3.16 µM",67.1%
same,"viability, T/C","second compound 0.0316 µM, first compound 10 µM",1.69%
same,"viability, T/C",[5],87.2%
same,"viability, T/C",[6],106%
same,"viability, T/C",[7],93.7%
same,"viability, T/C",[8],87%
same,"viability, T/C","second compound 0.1 µM, first compound 3.16 µM",63.2%
same,"viability, T/C","second compound 0.1 µM, first compound 10 µM",5.65%
same,"viability, T/C",[9],79.8%
same,"viability, T/C",[10],76.3%
same,"viability, T/C",[11],97.8%
same,"viability, T/C",[12],104%
same,"viability, T/C","second compound 0.316 µM, first compound 3.16 µM",62.8%
same,"viability, T/C","second compound 0.316 µM, first compound 10 µM",2.84%
same,"viability, T/C",[13],75.4%
same,"viability, T/C",[14],73.7%
same,"viability, T/C",[15],90.9%
same,"viability, T/C",[16],76.6%
same,"viability, T/C","second compound 1 µM, first compound 3.16 µM",80.2%
same,"viability, T/C","second compound 1 µM, first compound 10 µM",2.99%
same,"viability, T/C",[17],78.3%
same,"viability, T/C",[18],99.6%
same,"viability, T/C",[19],82%
same,"viability, T/C",[20],92.2%
same,"viability, T/C","second compound 3.16 µM, first compound 3.16 µM",95.9%
same,"viability, T/C","second compound 3.16 µM, first compound 10 µM",0.31%
same,"viability, T/C",[21],0.33%
same,"viability, T/C",[22],0.35%
same,"viability, T/C",[23],0.51%
same,"viability, T/C",[24],0.51%
same,"viability, T/C","second compound 10 µM, first compound 3.16 µM",0.36%
same,"viability, T/C","second compound 10 µM, first compound 10 µM",0.57%
CCN1CCN(Cc2ccc(Nc3ncc(F)c(-c4cc(F)c5nc(C)n(C(C)C)c5c4)n3)nc2)CC1 + CNCc1ccccc1-c1csc(C(C)Nc2nc(C)nc3cc(OC)c(OC)cc23)c1,pIC50,second compound 0.0316 µM,< 6.00
same,pIC50,second compound 0.1 µM,< 6.00
same,pIC50,second compound 0.316 µM,< 6.00
same,pIC50,second compound 1 µM,< 6.00
same,pIC50,second compound 3.16 µM,6.25
same,pIC50,second compound 10 µM,> 8.50
same,"viability, T/C",[25],100%
same,"viability, T/C",[26],93.7%
same,"viability, T/C",[1],68.7%
same,"viability, T/C",[2],96.5%
same,"viability, T/C",[3],107%
same,"viability, T/C",[4],140%
same,"viability, T/C",[27],91%
same,"viability, T/C",[28],96.2%
same,"viability, T/C",[5],83%
same,"viability, T/C",[6],85.6%
same,"viability, T/C",[7],107%
same,"viability, T/C",[8],155%
same,"viability, T/C",[29],78.2%
same,"viability, T/C",[30],97.7%
same,"viability, T/C",[9],79.5%
same,"viability, T/C",[10],92.7%
same,"viability, T/C",[11],102%
same,"viability, T/C",[12],113%
same,"viability, T/C",[31],54.9%
same,"viability, T/C",[32],90.8%
same,"viability, T/C",[13],91.8%
same,"viability, T/C",[14],81.4%
same,"viability, T/C",[15],114%
same,"viability, T/C",[16],119%
same,"viability, T/C",[33],83.8%
same,"viability, T/C",[34],103%
same,"viability, T/C",[17],95.5%
same,"viability, T/C",[18],92.8%
same,"viability, T/C",[19],123%
same,"viability, T/C",[20],0.46%
same,"viability, T/C",[35],0.4%
same,"viability, T/C",[36],0.42%
same,"viability, T/C",[21],0.47%
same,"viability, T/C",[22],0.41%
same,"viability, T/C",[23],0.39%
same,"viability, T/C",[24],0.31%
Cn1ncnc1[C@H]1c2n[nH]c(=O)c3cc(F)cc(c23)N[C@@H]1c1ccc(F)cc1 + CNCc1ccccc1-c1csc(C(C)Nc2nc(C)nc3cc(OC)c(OC)cc23)c1,pIC50,second compound 0.0316 µM,< 7.00
same,pIC50,second compound 0.1 µM,< 7.00
same,pIC50,second compound 0.316 µM,< 7.00
same,pIC50,second compound 1 µM,< 7.00
same,pIC50,second compound 3.16 µM,< 7.00
same,pIC50,second compound 10 µM,> 9.50
same,"viability, T/C","second compound 0.0316 µM, first compound 0.000316 µM",97.8%
same,"viability, T/C","second compound 0.0316 µM, first compound 0.001 µM",85.9%
same,"viability, T/C",[25],81.2%
same,"viability, T/C",[26],73.2%
same,"viability, T/C",[1],76.8%
same,"viability, T/C",[2],78.4%
same,"viability, T/C","second compound 0.1 µM, first compound 0.000316 µM",93.3%
same,"viability, T/C","second compound 0.1 µM, first compound 0.001 µM",90.2%
same,"viability, T/C",[27],90.2%
same,"viability, T/C",[28],70.6%
same,"viability, T/C",[5],81.8%
same,"viability, T/C",[6],79.7%
same,"viability, T/C","second compound 0.316 µM, first compound 0.000316 µM",65.4%
same,"viability, T/C","second compound 0.316 µM, first compound 0.001 µM",90.5%
same,"viability, T/C",[29],79.9%
same,"viability, T/C",[30],76.5%
same,"viability, T/C",[9],76.2%
same,"viability, T/C",[10],69.2%
same,"viability, T/C","second compound 1 µM, first compound 0.000316 µM",67.3%
same,"viability, T/C","second compound 1 µM, first compound 0.001 µM",76.9%
same,"viability, T/C",[31],67%
same,"viability, T/C",[32],75.3%
same,"viability, T/C",[13],75.9%
same,"viability, T/C",[14],72%
same,"viability, T/C","second compound 3.16 µM, first compound 0.000316 µM",89%
same,"viability, T/C","second compound 3.16 µM, first compound 0.001 µM",86.8%
same,"viability, T/C",[33],94.7%
same,"viability, T/C",[34],80.7%
same,"viability, T/C",[17],77.8%
same,"viability, T/C",[18],75%
same,"viability, T/C","second compound 10 µM, first compound 0.000316 µM",0.29%
same,"viability, T/C","second compound 10 µM, first compound 0.001 µM",0.28%
same,"viability, T/C",[35],0.32%
same,"viability, T/C",[36],0.29%
same,"viability, T/C",[21],0.31%
same,"viability, T/C",[22],0.28%
